Patent US20170368054A1, “Treatment of Glaucoma Using Laquinimod” (Teva Pharmaceutical Industries, Ltd., priority 2013, published 2017)

System: glaucoma human patients
Experiment: Example 2: efficacy of laquinimod for treating patients afflicted with glaucoma
Format: in vivo
Description: Example 2: Assessment of Efficacy of laquinimod for Treating Patients Afflicted with Glaucoma Periodic (e.g., daily or twice daily) administration of laquinimod (oral or topical) is effective in treating glaucoma human patients. Periodic (e.g., daily or twice daily) administration of laquinimod (oral or topical) is effective to reduce a glaucoma-associated symptom in the subject. A laquinimod composition as described herein is administered systematically or locally to the eye of a subject suffering from glaucoma. The administration of the composition is effective to treat the subject suffering from glaucoma. The administration of the composition is also effective to reduce a glaucoma-associated symptom of glaucoma in the subject.

[1] = human subject with glaucoma, systemic or local administration to the eye

For `CCN(C(=O)c1c(O)c2c(Cl)cccc2n(C)c1=O)c1ccccc1` [Laquinimod], which “Treating glaucoma / reducing a glaucoma-associated symptom” value (human patients, periodic (e.g. daily or twice daily) oral or topical administration) is on record?
Its value is “effective”.

What about the “Reduction of RGC damage and/or RGC loss, improvement of RGC viability” value [1] of the same molecule?
The value was “effective to reduce RGC damage and/or RGC loss”.

What about the “Reduction of intraocular pressure” value [1] of the same molecule?
Its value is “effective to reduce intraocular pressure”.
